Patent US8865741B2, “Aminoindane compounds and use thereof in treating pain” (Asana Biosciences, LLC, priority 2011, dated 2014)

Tested on: sodium channel in hTRPV1-N1E115 cells
Experiment: FLIPR membrane potential assay of sodium channel response in hTRPV1-N1E115 cells, with (47° C.) or without (25° C.) heat activation of hTRPV1
Type: cell-based
Conditions: for hTRPV1-N1E Nav 0.1 mM (% inhibition) 25° C. / hTRPV1-N1E Nav 1 mM (% inhibition) 25° C.: 25° C. (no heat activation of hTRPV1); for hTRPV1-N1E Nav 0.1 mM (% inhibition) 47° C. / hTRPV1-N1E Nav 1 mM (% inhibition) 47° C.: 47° C. (heat activation of hTRPV1); for IC50: class symbols, read-out: hTRPV1-N1E IC50 (μM) 47° C.
Excerpt: In one embodiment, a modified FLIPR® (Fluorometric Imaging Plate Reader) based assay system was developed which is capable of discriminating between non-specific versus hTRPV1-mediated entry of test compounds. Advantageously, the assay system utilizes heat activated opening of hTRPV1 channels followed by an assessment of internal sodium channel block. The assay allows a permanently charged compound to selectively enter through opened hTRPV1 channels and that compound's potency in inhibiting sodium channels from the cytoplasm side of the same cell can be assessed and quantified.
The assay is readily performed in multi-well assay plates into which cells in growth media are added and incubated under conditions which permit the formation of a confluent monolayer over a period of hours prior to the start of the assay. Conventional culture media and conditions may be utilized. Duplicate cell assay plates are prepared for each experiment.
The spent media from the cell seeded plates is removed on the day of the assay and replaced with Membrane potential Dye-Blue (Molecular Devices). The dye was prepared in assay buffer following manufacturer's instructions. The dye-loaded plate is incubated at room temperature (about 25° C.) for about 30 minutes in order to pre-load the cells with dye. Optionally, the cells may be loaded with the dye simultaneously with adding the test compounds.
The test compounds are diluted in the Assay Buffer and added to each well of a specific 384-well ‘compound plate’, which serves as a source plate for compound addition using the FLIPR® platform. The concentration of compounds in the compound-plate was adjusted to achieve the desired final concentration when added to the cells in the ‘cell-plate’. After completion of the dye incubation period, the dye loaded cell-plates and the compound source plates are inserted into the FLIPR® Tetra™ device with a 384 FLIPR® tip box (Molecular Devices, Inc.) according to manufacturer's instructions. The compounds are robotically added to the dye loaded cell-plates using software integral to the FLIPR® Tetra™ instrument.
Immediately following compound addition, hTRPV1 is activated, in one of the duplicate cell plates, by heating. Specifically, entire multi-well plate containing the compound-cells mixture is incubated at 47° C. for 10 minutes, after which they are returned to room temperature (about 25° C.) for a further 30 minutes. Heat activation of hTRPV1 was omitted from the replicate cell plate which was simply maintained at room temperature for the entire 40 minutes.
A membrane potential response is elicited in the dye- and compound-loaded cells by the addition of veratridine which is a known sodium channel ‘agonist’. As illustrated in an example herein, an agonist plate containing veratridine (Sigma) is prepared in advance and is inserted into suitable devices such as, e.g., the FLIPR® TETRA® device for a “2nd addition” as instructed by the manufacturer. The concentration of veratridine in the ‘agonist plate’ was adjusted to achieve a final concentration of 100 μM when added to the cells in the cell-plate. Final concentrations of veratridine greater or lesser than 100 μM may also be used but the signal measured by the FLIPR®^Tetra™ device or another suitable device may vary accordingly.
The exposure of the cells in the cell-plate to veratridine induces sodium channels in the cells to open and the resulting ion flux produces a membrane potential depolarization that is detected as a fluorescence signal by the FLIPR® ^Tetra™ Device. The activity of test compounds is determined by their ability to attenuate the veratridine-induced fluorescence signal, the most promising compounds are those that show an enhanced activity in the heat-activated cell plate over the non-heat-activated cell plate. […]

Structure (SMILES): Cc1ccc(N(CCC2CCCC[N+]2(C)C)C2Cc3ccccc3C2)cc1.[I-] (stereo not shown) [Example 22, 1,1-Dimethyl-2-[2-((indan-2-yl)(4-methylphenyl)amino)ethyl]piperidinium iodide]
- hTRPV1-N1E Nav 0.1 mM (% inhibition) 25° C. (0.1 mM): 8.7%
- hTRPV1-N1E Nav 0.1 mM (% inhibition) 47° C. (0.1 mM): 62.7 (N = 2) %
- hTRPV1-N1E Nav 1 mM (% inhibition) 25° C.: 48 (N = 2) %
- hTRPV1-N1E Nav 1 mM (% inhibition) 47° C.: 69.9 (N = 2) %
- IC50 (47° C.): 10 to 100 µM

Structure (SMILES): Cc1ccccc1N(CCC1CC[N+](C)(C)CC1)C1Cc2ccccc2C1.[Br-] [Example 40, 1,1-dimethyl-4-[2-((indan-2-yl)(2-methylphenyl)amino)ethyl]piperidinium bromide]
- hTRPV1-N1E Nav 0.1 mM (% inhibition) 25° C. (0.1 mM): 34.3%
- IC50 (47° C.): 10 to 100 µM

Structure (SMILES): Cc1ccc(N(CC2CCCC[N+]2(C)C)C2Cc3ccccc3C2)cc1.[I-] (stereo not shown) [Example 27, 1,1-Dimethyl-2-[((indan-2-yl)(4-methylphenyl)amino)methyl]piperidinium iodide]
- hTRPV1-N1E Nav 0.1 mM (% inhibition) 25° C. (0.1 mM): 68.1%
- hTRPV1-N1E Nav 0.1 mM (% inhibition) 47° C. (0.1 mM): 81.3 (N = 2) %
- hTRPV1-N1E Nav 1 mM (% inhibition) 25° C.: 61.4 (N = 2) %
- hTRPV1-N1E Nav 1 mM (% inhibition) 47° C.: 71.9 (N = 2) %

Structure (SMILES): Cc1ccccc1N(CCC1CCCC[N+]1(CCO)CCO)C1Cc2ccccc2C1.[Br-] (stereo not shown) [Example 46, 1,1-Bis(2-hydroxyethyl)-2-[2-((indan-2-yl)(2-methylphenyl)amino)ethyl]piperidinium bromide]
- hTRPV1-N1E Nav 0.1 mM (% inhibition) 25° C. (0.1 mM): 31.8%
- hTRPV1-N1E Nav 0.1 mM (% inhibition) 47° C. (0.1 mM): 94.4 (N = 2) %
- IC50 (47° C.): 10 to 100 µM

Structure (SMILES): Cc1ccccc1N(CC[C@H]1CCCC[N+]1(C)C)C1Cc2ccccc2C1 [Example 35, (R)-1,1-Dimethyl-2-[2-((indan-2-yl)(2-methylphenyl)amino)ethyl]piperidinium iodide]
- IC50 (47° C.): 10 to 100 µM

Structure (SMILES): C[N+]1(C)CCCCC1CN(c1cccc(F)c1)C1Cc2ccccc2C1.[I-] (stereo not shown) [Example 31, 1,1-Dimethyl-2-[((3-fluorophenyl)(indan-2-yl)amino)methyl]piperidinium iodide]
- hTRPV1-N1E Nav 0.1 mM (% inhibition) 25° C. (0.1 mM): 3.8%
- hTRPV1-N1E Nav 0.1 mM (% inhibition) 47° C. (0.1 mM): 62.6 (N = 2) %
- hTRPV1-N1E Nav 1 mM (% inhibition) 25° C.: Insoluble
- hTRPV1-N1E Nav 1 mM (% inhibition) 47° C.: Insoluble

Structure (SMILES): C[N+]1(C)CCCC1CN(c1ccccc1)C1Cc2ccccc2C1.[I-] (stereo not shown) [Example 8, 1,1-dimethyl-2-[((indan-2-yl)(phenyl)amino)methyl]pyrrolidinium iodide]
- hTRPV1-N1E Nav 0.1 mM (% inhibition) 25° C. (0.1 mM): 6.5%
- hTRPV1-N1E Nav 0.1 mM (% inhibition) 47° C. (0.1 mM): 22.7 (N = 2) %
- hTRPV1-N1E Nav 1 mM (% inhibition) 25° C.: 39.9 (N = 2) %
- hTRPV1-N1E Nav 1 mM (% inhibition) 47° C.: 69.5 (N = 2) %

Structure (SMILES): C[N+]1(C)CCCCC1CCN(c1nccs1)C1Cc2ccccc2C1.[I-] (stereo not shown) [Example 39, 1,1-dimethyl-2-[2-((indan-2-yl)(thiazol-2-yl)amino)ethyl]piperidinium iodide]
- hTRPV1-N1E Nav 0.1 mM (% inhibition) 25° C. (0.1 mM): 10.6%
- hTRPV1-N1E Nav 0.1 mM (% inhibition) 47° C. (0.1 mM): 11.3 (N = 2) %
- hTRPV1-N1E Nav 1 mM (% inhibition) 25° C.: 31.3 (N = 2) %
- hTRPV1-N1E Nav 1 mM (% inhibition) 47° C.: 62.4 (N = 2) %

Structure (SMILES): Cc1cccc(N(CCC2CCCC[N+]2(C)C)C2Cc3ccccc3C2)n1.[I-] (stereo not shown) [Example 47, 1,1-Dimethyl-2-[2-((indan-2-yl)(6-methylpyridine-2-yl)amino)ethyl]piperidinium iodide]
- hTRPV1-N1E Nav 0.1 mM (% inhibition) 25° C. (0.1 mM): 30.7%
- hTRPV1-N1E Nav 0.1 mM (% inhibition) 47° C. (0.1 mM): 79.5 (N = 2) %
- IC50 (47° C.): 10 to 100 µM

Structure (SMILES): CC[N+]1(CC)CCCCC1CCN(c1ccc(F)cc1)C1Cc2ccccc2C1.[I-] (stereo not shown) [Example 18, 1,1-diethyl-2-[2-((4-fluorophenyl)(indan-2-yl)amino)ethyl]piperidinium iodide]
- hTRPV1-N1E Nav 0.1 mM (% inhibition) 25° C. (0.1 mM): 0%
- hTRPV1-N1E Nav 0.1 mM (% inhibition) 47° C. (0.1 mM): 86.9 (N = 3) %
- hTRPV1-N1E Nav 1 mM (% inhibition) 25° C.: 0 (N = 3) %
- hTRPV1-N1E Nav 1 mM (% inhibition) 47° C.: 38.2 (N = 3) %
- IC50 (47° C.): 10 to 100 µM

Structure (SMILES): Cc1ccccc1N(CCC1CCCC[N+]1(C)C)C1Cc2ccccc2C1 (stereo not shown) [Example 52, 1,1-Dimethyl-2-[2-((indan-2-yl)(2-methylphenyl)amino)ethyl]piperidinium bromide]
- IC50 (47° C.): 10 to 100 µM

Structure (SMILES): C[N+]1(C)CCCCC1CCN(c1ncccn1)C1Cc2ccccc2C1.[I-] (stereo not shown) [Example 38, 1,1-dimethyl-2-[2-((indan-2-yl)(pyrimidine-2-yl)amino)ethyl]piperidinium iodide]
- hTRPV1-N1E Nav 0.1 mM (% inhibition) 25° C. (0.1 mM): 25.9%
- hTRPV1-N1E Nav 0.1 mM (% inhibition) 47° C. (0.1 mM): 37.5 (N = 2) %
- hTRPV1-N1E Nav 1 mM (% inhibition) 25° C.: 46.6 (N = 2) %
- hTRPV1-N1E Nav 1 mM (% inhibition) 47° C.: 70.4 (N = 2) %

Structure (SMILES): CCC[N+]1(CCC)CCCC[C@@H]1CCN(c1ccccc1)C1Cc2ccccc2C1.[I-] [Example 12, (R)-1,1-Dipropyl-2-[2-((indan-2-yl)(phenyl)amino)ethyl]piperidinium iodide]
- hTRPV1-N1E Nav 0.1 mM (% inhibition) 25° C., DMSO (0.1 mM, DMSO, 25° C.): 49%
- hTRPV1-N1E Nav 0.1 mM (% inhibition) 47° C., DMSO (0.1 mM, DMSO, 47° C.): 87 (N = 4, DMSO) %

Structure (SMILES): Cc1ccccc1N(CCC1CCCC[N+]1(C)C)C1Cc2ccccc2C1 (stereo not shown) [Example 50, 1,1-Dimethyl-2-[2-((indan-2-yl)(2-methylphenyl)amino)ethyl]piperidinium chloride]
- IC50 (47° C.): 10 to 100 µM

Structure (SMILES): CC[N+]1(CC)CCCCC1CCN(c1cccc(C)c1)C1Cc2ccccc2C1.[I-] (stereo not shown) [Example 21, 1,1-Diethyl-2-[2-((indan-2-yl)(3-methylphenyl)amino)ethyl]piperidinium iodide]
- hTRPV1-N1E Nav 0.1 mM (% inhibition) 25° C. (0.1 mM): 44.7%
- hTRPV1-N1E Nav 0.1 mM (% inhibition) 47° C. (0.1 mM): 80.2 (N = 3) %
- hTRPV1-N1E Nav 1 mM (% inhibition) 25° C.: 58.2 (N = 3) %
- hTRPV1-N1E Nav 1 mM (% inhibition) 47° C.: 64.3 (N = 3) %
- IC50 (47° C.): 10 to 100 µM

Structure (SMILES): CC[N+]1(CC)CCCCC1CCCN(c1ccccc1)C1Cc2ccccc2C1.[I-] (stereo not shown) [Example 26, 1,1-Diethyl-2-[3-((indan-2-yl)(phenyl)amino)propyl]piperidinium iodide]
- hTRPV1-N1E Nav 0.1 mM (% inhibition) 25° C. (0.1 mM): 44.6%
- hTRPV1-N1E Nav 0.1 mM (% inhibition) 47° C. (0.1 mM): 64.7 (N = 2) %
- hTRPV1-N1E Nav 1 mM (% inhibition) 25° C.: Insoluble
- hTRPV1-N1E Nav 1 mM (% inhibition) 47° C.: Insoluble
- IC50 (47° C.): 10 to 100 µM

Structure (SMILES): Cc1cccc(N(CCC2CCCC[N+]2(C)C)C2Cc3ccccc3C2)n1.[Br-] (stereo not shown) [Example 48, 1,1-Dimethyl-2-[2-((indan-2-yl)(6-methylpyridine-2-yl)amino)ethyl]piperidinium bromide]
- hTRPV1-N1E Nav 0.1 mM (% inhibition) 25° C. (0.1 mM): 29.6%
- IC50 (47° C.): 10 to 100 µM

Structure (SMILES): Cc1ccccc1N(CC[C@@H]1CCCC[N+]1(C)C)C1Cc2ccccc2C1 [Example 34, (S)-1,1-Dimethyl-2-[2-((indan-2-yl)(2-methylphenyl)amino)ethyl]piperidinium iodide]
- IC50 (47° C.): 10 to 100 µM

Structure (SMILES): C[N+]1(C)CCCCC1CCN(c1ccc(F)cc1)C1Cc2ccccc2C1.[I-] (stereo not shown) [Example 15, 1,1-Dimethyl-2-[2-((4-fluorophenyl)(indan-2-yl)amino)ethyl]piperidinium iodide]
- hTRPV1-N1E Nav 0.1 mM (% inhibition) 25° C. (0.1 mM): 2.8%
- hTRPV1-N1E Nav 0.1 mM (% inhibition) 47° C. (0.1 mM): 75.2 (N = 3) %
- hTRPV1-N1E Nav 1 mM (% inhibition) 25° C.: 0.7 (N = 3) %
- hTRPV1-N1E Nav 1 mM (% inhibition) 47° C.: 35.0 (N = 3) %
- IC50 (47° C.): 10 to 100 µM
